Earlier results as cited in patent US20020010550A1, “PHARMACOKINETIC-BASED DRUG DESIGN TOOL AND METHOD” (priority 1998, published 2002).
Like-named read-outs stand apart in the source and are kept apart here.

Columns and labels:
[1] = system: intestinal transport; settings: permeability standards
[2] = system: rabbit intestinal tissue (duodenum, jejunum, ileum, colon); settings: donor concentration given with each compound
[3] = human
[4] = Plasma Kinetics

SMILES: OC[C@@H](O)[C@@H](O)[C@H](O)[C@H](O)CO [mannitol]
- Transport mechanism [1]: Passive Paracellular
- Pe ([2]; Colon): 5.53 ×10⁻⁶ cm/s
- Pe ([2]; Duodenum): 1.73 ×10⁻⁶ cm/s
- Pe ([2]; Ileum): 4.02 ×10⁻⁶ cm/s
- Pe ([2]; Jejunum): 3.54 ×10⁻⁶ cm/s

SMILES: Nc1nc2c(ncn2COC(CO)CO)c(=O)[nH]1.[Na] [Gancyclovir, 9-(1,3-dihydroxy-2-propoxymethyl)guanine, monosodium salt]
- bioavailability of fasted patients in clinical trials ([3]; fasted, oral): 3-20%
- absorption ([3]; in vivo): poorly absorbed
- in vivo biotransformation ([3]; in vivo): no in vivo biotransformation
- Fluid Volume [4]: 76,800 ml
- k12 [4]: 0.839
- k21 [4]: 0.670
- kelim [4]: 0.161

SMILES: C[C@]12CCC(=O)C=C1CC[C@@H]1[C@@H]2[C@@H](O)C[C@@]2(C)[C@H]1CC[C@]2(O)C(=O)CO [hydrocortisone]
- Pe ([2]; Colon): 3.85 ×10⁻⁶ cm/s
- Pe ([2]; Duodenum): 0.3 ×10⁻⁶ cm/s
- Pe ([2]; Ileum): 2.91 ×10⁻⁶ cm/s
- Pe ([2]; Jejunum): 1.31 ×10⁻⁶ cm/s

SMILES: O=C[C@H](O)[C@@H](O)[C@H](O)[C@H](O)CO [D-glucose]
- Transport mechanism [1]: Carrier-mediated Influx
- Pe ([2]; Colon): 9.28 ×10⁻⁶ cm/s
- Pe ([2]; Duodenum): 4.55 ×10⁻⁶ cm/s
- Pe ([2]; Ileum): 14.5 ×10⁻⁶ cm/s
- Pe ([2]; Jejunum): 10.2 ×10⁻⁶ cm/s
